Reference: patent publication US20210077477A1, “MICROGLIA MODULATORS FOR USE IN TREATMENT OF DEPRESSION” (priority 2018, published 2021)
“Also recorded” adds a separate entry of the source.

Key:
brain microglia [1] = assay: Microglia depletion by PLX5622 diet (IBA-1 staining); format: in vivo, mice; conditions: diet containing PLX5622 for weeks, incl. hippocampus
CUS-exposed mice [2] = assay: Sucrose preference test (anhedonia) in the CUS model; format: in vivo
Procedure: (§1) The CUS schedule comprised daily exposure to two stressors in a random order over a 5-week period. The list of CUS stressors included: cage shaking for 1 h with loud music and lights on, lights on during the entire night (12 h), lights-off for 3 h during the daylight phase, flashing (stroboscopic) light for 6 h, placement in 4° C. cold room for 1 h, mild restraint (in small ventilated cages) for 2 h, 45° cage tilt for 14 h, wet sawdust in the cage for 14 h, exposure to rat odor for 2 h, noise in the room for 3 h, and water deprivation for 12 h during the dark period.
Following baseline adaptation to sucrose for 3-4 days, mice were presented in the beginning of the dark circadian phase with two graduated drinking tubes, one containing tap water and the other 1% sucrose solution for 4 h. Sucrose preference was calculated as the percentage of sucrose consumption out of the total drinking volume.

CUS-exposed mice [3] = assay: Social exploration test in the CUS model; format: in vivo
Procedure: as §1
Each subject was placed in an observation cage and allowed to habituate to the cage for 15 min, following which a male juvenile was placed in the cage. Social exploration, defined as the time of near contact between the nose of the subject and the juvenile conspecific, was then recorded for 2 min, using computerized in-house software.

CUS-exposed mice [4] = assay: Porsolt forced swim test in the CUS model; format: in vivo
Procedure: as §1
Mice were placed in a plastic cylinder (with a height of 30 cm and diameter of 20 cm), filled with 25° C. water. The time spent immobile, defined as the absence of all movement except for motions required to maintain head above water were recorded for 6 min, and automatically analyzed off-line using the EthoVision software (Noldus).

hippocampal neurogenesis = assay: Hippocampal neurogenesis (DCX-positive cells in the DG); format: in vivo, mice; conditions: CUS-exposed, PLX diet, DCX-stained cells in DG
Procedure: Microglia were visualized using a primary antibody to the microglial marker ionized calcium-binding adapter molecule-1 (Iba-1) (rabbit anti Iba-1 1:250, Wako, Japan), followed by a secondary antibody (goat anti rabbit, 1:200; Invitrogen, Carlsbad, Calif., USA). The rate of neurogenesis in the hippocampus was measured by staining for doublecortin (DCX), using guinea pig anti-DCX (1:1,000, Millipore, Chemicon, Tamecula, Calif., USA) as the primary antibody, and biotin-SP-conjugated donkey anti-Guinea pig (1:200; Jackson Laboratories, West grove, PA, USA) as the secondary antibody, with final visualization using a conjugated streptavidin Ab (Jackson Laboratories, West grove, PA, USA). […]
Images were captured using a Nikon Eclipse microscope and camera. Cells were manually counted using 10× magnification in a defined area exclusively containing the dentate gyrus (DG) or CA3 region of the dorsal hippocampus for each slide, using Nikon Imaging Elements Software (NIS-Elements). Four sections of each brain were counted. […] Microglia cell processes length was measured by capturing images at 40× magnification and by manual tracing of the processes of all Iba-1+ cells in these sections, using the Image)/FIJI software. […] Contacts were recorded if spatial overlap was observed on the body or on the dendrite branches of P2YR12-positive cells. […]

[5] = system: hippocampal gene transcripts; assay: RNA sequencing of hippocampal gene transcription; format: in vivo, mice; conditions: for Log 2 (fold change) Con-Stress-Sham vs. PLX-Stress-Sham: hippocampus
Excerpt: RNA Sequencing, PolyA based mRNA was selected using oligodT beads, followed by fragmentation, first strand and second strand synthesis reactions. Illumina libraries were constructed while performing the end repair, A base addition, adapter ligation and PCR amplification steps with SPRI beads cleanup in between steps. Indexed samples were pooled and sequenced in an Illumina HiSeq 2500 machine in a single read mode.
Bioinformatics analysis. Adapters were trimmed using the cutadapt tool. Following adapter removal, reads that were shorter than 40 nucleotides were discarded (cutadapt option −m 40). Reads that had either a percentage of Adenine bases above 50% or a percentage of Thymine bases above 50% were discarded using a custom script. TopHat (v2.0.10) was used to align the reads to the mouse genome (mm10). Counting reads on mm10 refseq genes (downloaded from igenomes) was done with HTSeq-count (version 0.6.1p1). Differential expression analysis was performed using DESeq2 (1.6.3). Raw p values were adjusted for multiple testing (q-value, false discovery rate).

[6] = system: hippocampal gene transcripts; assay: qPCR validation of hippocampal gene expression; format: in vivo; conditions: hippocampus, CUS-exposed mice
Procedure: Mice were sacrificed by decapitation. Each brain was quickly removed on an ice-cold glass plate, and the hippocampus was dissected out under a binocular. Tissues were weighed, flash frozen in liquid nitrogen, and stored in −80° C. until RNA extraction. RNA was extracted using PerfectPure RNA extraction kit (5 PRIME, Darmstadt, Germany). RNA samples (2 μg) were reverse transcribed using the QuantiTect Reverse Transcription Kit from Qiagen (Hilden, Germany), including DNase treatment of contaminating genomic DNA. Expression of mRNA was determined by qPCR, using glyceraldehyde-3-phosphate dehydrogenase (Gapdh) as a normalizing gene. The following list of gene transcripts was validated: Ionized calcium-binding adapter molecule 1 (Iba1), the Purinergic receptor P2yr12, Lymphocyte-activation gene 3 (Lag-3), Cd180, tryptophan 2,3-dioxygenase (Tdo2), Phospholipase A2 Group IVE (Plag24e) Sox11, and Dopamine Receptor D1 (Drd1). Primers were designed using PrimerQuest IDT (Integrated DNA Technologies, Inc, San Diego, Calif., USA). The following primers were used, Gapdh, Forward: TCTCCCTCACAATTTCC (SEQ ID NO: 1); Reverse: GGGTGCAGCGAACTTTA (SEQ ID NO: 2). Drd1, Forward: […] (SEQ ID NO: 3); Reverse: […] (SEQ ID NO: 4). Tdo2, Forward: […] (SEQ ID NO: 5); Reverse: […] (SEQ ID NO: 6). Iba1, Forward: […] (SEQ ID NO: 7); Reverse: […] (SEQ ID NO: 8). Lag-3, Forward: […] (SEQ ID NO: 9); Reverse: […] (SEQ ID NO: 10). Cd180, Forward: […] (SEQ ID NO: 11); Reverse: […] (SEQ ID NO: 12). Sox11, Forward: […] (SEQ ID NO: 13); Reverse: […] (SEQ ID NO: 14). Plag24e, Forward: […] (SEQ ID NO: 15); Reverse: […] (SEQ ID NO: 16), and P2yr12 Forward: […] (SEQ ID NO: 17); Reverse: […] (SEQ ID NO: 18). Normal and mock reversed transcribed samples (in the absence of reverse transcriptase), as well as no template controls (total mix without cDNA) were run for each of the examined mRNAs. qPCR reactions were subjected to an initial step of 15 min at 95° C. to activate the HotStar Taq DNA polymerase, followed by 40 cycles consisting of 15 s at 94° C., 30 s at 60° C. and 30 s at 72° C. Fluorescence was measured at the end of each elongation step. Data were collected and analyzed using the StepOnePlus instrument and software (Thermo Fischer Scientific), and a threshold cycle value Ct was calculated from the exponential phase of each PCR sample. Expression levels of mRNAs were calculated and expressed in relative units of SYBR Green fluorescence.

brain microglia [7] = conditions: given chronically (more than 2-3 weeks); Danger et al., 2015; cited from earlier work
[8] = PLX5622 diet, non-stressed mice
[9] = CUS-exposed SHAM-treated mice, q<0.32, cutoff ±1.3-fold
[10] = CUS 5 weeks, antibody 100 μg i.p. every 4 days, 6 injections, Cipralex daily i.p., 3 weeks

Q: Which “depletion of brain microglia” value (brain microglia [1]) does the source give for `COc1ncc(F)cc1CNc1ccc(Cc2c[nH]c3ncc(C)cc23)c(F)n1` [PLX5622] here?
A: Its value is “near-complete depletion”.

Q: What about the “anti-depressive effect of ECT under microglial depletion” value (CUS-exposed mice [2]; CUS-exposed, PLX5622 diet, 2.5-week course of ECT) of the same compound?
A: Its value is “markedly attenuated”.

Q: And the “effect of ECT on sucrose preference in PLX diet mice” value (CUS-exposed mice [2]; CUS-exposed, PLX diet, ECT 3 times/week for 2.5 weeks)?
A: The value was “only a small increase”.

Q: And the “development of CUS-induced depression” value (CUS-exposed mice [2]; PLX5622 diet, 5 weeks CUS, sucrose preference and social exploration)?
A: Its value is “did not influence”.

Q: And the “sucrose preference, effect of microglia depletion by itself” value (CUS-exposed mice [2]; [8])?
A: Its value is “did not reduce”.

Q: What about the “difference between effects of ECT on social exploration in PLX vs CDiet mice” value (CUS-exposed mice [3]; CUS-exposed, ECT 2.5 weeks) of the same compound?
A: Its value is “did not reach statistical significance”.

Q: What about the “social exploration, effect of microglia depletion by itself” value (CUS-exposed mice [3]; [8]) of the same compound?
A: The value was “did not reduce”.

Q: And the “forced swim immobility of ECT-treated PLX mice vs CDiet mice” value (CUS-exposed mice [4]; CUS-exposed, ECT 2.5 weeks)?
A: The value was “significantly greater forced swim immobility”.

Q: And the “immobility in forced swim, effect of microglia depletion by itself” value (CUS-exposed mice [4]; [8])?
A: The value was “did not reduce”.

Q: And the “effect of ECT on hippocampal neurogenesis under microglia depletion” value (hippocampal neurogenesis)?
A: The value was “completely prevented”.

Q: What about the “effect of ECT on hippocampal neurogenesis under microglia depletion” value (hippocampal neurogenesis; listed as PLX) of the same compound?
A: The value was “significantly reduced”.

Q: What about the “genes differentially regulated, PLX vs CDiet” value [5, 9] of the same compound?
A: Its value is 390 genes.

Q: What about the “genes down-regulated, PLX vs CDiet” value [5, 9] of the same compound?
A: Its value is 338 genes.

Q: What about the “genes up-regulated, PLX vs CDiet” value [5, 9] of the same compound?
A: Its value is 52 genes.

Q: What about the “genes differentially regulated between SHAM vs ECT in PLX-treated groups” value ([5]; CUS-exposed mice) of the same compound?
A: Its value is “no genes were differentially regulated”.

Q: What about the “Log 2 (fold change) Con-Stress-Sham vs. PLX-Stress-Sham” value ([5]; Cd40 transcript) of the same compound?
A: Its value is 0.159.

Q: What about the “Log 2 (fold change) Con-Stress-Sham vs. PLX-Stress-Sham” value ([5]; Cd80 transcript) of the same compound?
A: Its value is 0.371.

Q: What about the “Log 2 (fold change) Con-Stress-Sham vs. PLX-Stress-Sham” value ([5]; Cd86 transcript) of the same compound?
A: The value was 2.092.

Q: What about the “Log 2 (fold change) Con-Stress-Sham vs. PLX-Stress-Sham” value ([5]; Cd180 transcript) of the same compound?
A: Its value is 1.892.

Q: What about the “Log 2 (fold change) Con-Stress-Sham vs. PLX-Stress-Sham” value ([5]; Cd276 transcript) of the same compound?
A: The value was 0.019.

Q: And the “Log 2 (fold change) Con-Stress-Sham vs. PLX-Stress-Sham” value ([5]; Ctla4 transcript)?
A: The value was 0.100.

Q: What about the “Log 2 (fold change) Con-Stress-Sham vs. PLX-Stress-Sham” value ([5]; Havcr2 (TIM-3) transcript) of the same compound?
A: Its value is 2.101.

Q: And the “Log 2 (fold change) Con-Stress-Sham vs. PLX-Stress-Sham” value ([5]; Lag-3 transcript)?
A: Its value is 1.968.

Q: And the “Log 2 (fold change) Con-Stress-Sham vs. PLX-Stress-Sham” value ([5]; Lgals3 transcript)?
A: Its value is 0.011.

Q: What about the “Log 2 (fold change) Con-Stress-Sham vs. PLX-Stress-Sham” value ([5]; PD-L1 transcript) of the same compound?
A: Its value is 0.164.

Q: And the “Log 2 (fold change) Con-Stress-Sham vs. PLX-Stress-Sham” value ([5]; Pdcd1lg2 transcript)?
A: Its value is −0.373.

Q: What about the “Log 2 (fold change) Con-Stress-Sham vs. PLX-Stress-Sham” value ([5]; Pdcd1 transcript) of the same compound?
A: Its value is −0.669.

Q: And the “Log 2 (fold change) Con-Stress-Sham vs. PLX-Stress-Sham” value ([5]; Tdo2 transcript)?
A: The value was −0.248.

Q: What about the “Log 2 (fold change) Con-Stress-Sham vs. PLX-Stress-Sham” value ([5]; Tigit transcript) of the same compound?
A: The value was −0.804.

Q: And the “Log 2 (fold change) Con-Stress-Sham vs. PLX-Stress-Sham” value ([5]; Vtcn1 transcript)?
A: The value was −0.905.

Q: What about the “Cd180 gene expression in PLX-treated mice” value [6] of the same compound?
A: Its value is “lower expression levels”.

Q: What about the “Drd1 expression, effect of the microglia depletion procedure by itself” value [6] of the same compound?
A: Its value is “not affected”.

Q: What about the “Iba1 expression, effect of the PLX5622 procedure” value [6] of the same compound?
A: The value was “significantly reduced”.

Q: What about the “Lag-3 transcription in PLX-treated mice” value [6] of the same compound?
A: The value was “almost completely abolished”.

Q: What about the “P2ry12 expression, effect of the PLX5622 procedure” value [6] of the same compound?
A: Its value is “significantly reduced”.

Q: And the “Sox11 expression, effect of the microglia depletion procedure by itself” value [6]?
A: Its value is “not affected”.

Q: What about the “Tdo2 expression in PLX5622-treated mice” value [6] of the same compound?
A: The value was “significantly increased”.

Q: What about the “pla2g4e expression in PLX5622-treated mice” value [6] of the same compound?
A: Its value is “significantly increased”.

Q: And the microglial depletion (brain microglia [7])?
A: The microglial depletion was “near-complete microglial depletion”.

Q: For `CN(C)CCC[C@@]1(c2ccc(F)cc2)OCc2cc(C#N)ccc21` [escitalopram], which “sucrose preference after vs before chronic treatment” value (CUS-exposed mice [2]; [10]) is on record?
A: Its value is “had no such effect”.

Q: What about the “social exploration (SE) after vs before chronic treatment” value (CUS-exposed mice [3]; [10]) of the same compound?
A: The value was “significantly elevated; also recorded: significant increase”.
